One assay concerns S. aureus UC ® 9213. The assay is described as follows: In vitro MIC by agar dilution (NCCLS), Gram-positive bacteria: S. aureus. Format: cell-based, Staphylococcus aureus. To be noted: for MIC: Staphylococcus aureus. An excerpt:
The oxazolidinone antibacterial agents of this invention have useful activity against a variety of organisms. The in vitro activity of compounds of this invention can be assessed by standard testing procedures such as the determination of minimum inhibitory concentration (MIC) by agar dilution as described in "Methods for Dilution Antimicrobial Susceptibility Tests for Bacteria That Grow Aerobically" (MFT) published January 1983 by the National Committee for Clinical Laboratory Standards, 771 East Lancaster Avenue, Villanova, Pa. 19084, USA. The activity of selected compounds of this invention against Staphylococcus aureus and Streptococcus pneumoniae are shown in Table 1.
^a Minimum inhibitory concentration: lowest concentration of drug
(μg/mL) that inhibits visible growth of the organism.

In a further assay the test system is E. Faecalis UC ® 9217. Put plainly: In vitro MIC by agar dilution (NCCLS), Gram-positive bacteria: E. faecalis. To be noted: for MIC: Enterococcus faecalis. Format: cell-based. In general terms: Agar dilution tests growth on a series of plates holding different concentrations.
Setting [1] is: UC9213, S. aureus UC 9213, agar dilution, read-out: MIC (minimum inhibitory concentration: lowest concentration of drug that inhibits visible growth of the organism).
Where [2] appears, read: UC9217, E. Faecalis UC 9217, agar dilution, read-out: MIC (minimum inhibitory concentration: lowest concentration of drug that inhibits visible growth of the organism).

Values after ≈ are worked out from the molar mass of the structure shown. Like-named read-outs stand apart in the source and are kept apart here.

On to `CC(=O)NC[C@H]1CN(c2ccc(N3CCN(c4nc5ccccc5s4)CC3)c(F)c2)C(=O)O1` [Example 1, (S)--N--[[3-[4-[4-(2-Benzothiazolyl)-1-piperazinyl]-3-fluorophenyl]-2-oxo-5-oxazolidinyl]methyl]acetamide], for which the MIC stood at 4 µg/mL (≈ 8.52 µM) in the assay on S. aureus UC ® 9213 (setting [1]) and 2 µg/mL (≈ 4.26 µM) in the assay on E. Faecalis UC ® 9217 (setting [2]).
Consider `CC(=O)NC[C@H]1CN(c2ccc(N3CCN(c4ncc([N+](=O)[O-])s4)CC3)c(F)c2)C(=O)O1` [Example 2, (S)--N--[[3-[3-Fluoro-4-[4-(5-nitrothiazol-2-yl)-1-piperazinyl]phenyl]-2-oxo-5-oxazolidinyl]methyl]acetamide], for which the MIC with S. aureus UC ® 9213 (setting [1]) and in the assay on E. Faecalis UC ® 9217 (setting [2]) was 2 µg/mL (≈ 4.31 µM) in each case.
For the molecule `CC(=O)NC[C@H]1CN(c2ccc(N3CCN(c4nc5ccccc5o4)CC3)c(F)c2)C(=O)O1` [Example 3, (S)--N--[[3-[4-[4-(2-Benzoxazolyl)-1-piperazinyl]-3-fluorophenyl]-2-oxo-5-oxazolidinyl]methyl]acetamide], the MIC in the assay on S. aureus UC ® 9213 (setting [1]) and in the assay on E. Faecalis UC ® 9217 (setting [2]) was 2 µg/mL (≈ 4.41 µM) throughout.
For `CC(=O)NC[C@H]1CN(c2ccc(N3CCN(c4nc5cc([N+](=O)[O-])ccc5o4)CC3)c(F)c2)C(=O)O1` [Example 4, (S)--N--[[3-[3-Fluoro-4-[4-(5-nitrobenzoxazol-2-yl)-1-piperazinyl]phenyl]-2-oxo-5-oxazolidinyl]methyl]acetamide], the MIC in the assay with S. aureus UC ® 9213 (setting [1]) and with E. Faecalis UC ® 9217 (setting [2]) was 1 µg/mL (≈ 2.01 µM) in each case.
On to `CC(=O)NC[C@H]1CN(c2ccc(N3CCN(c4nccs4)CC3)c(F)c2)C(=O)O1` [Example 5, (S)--N--[[3-[3-Fluoro-4-[4-(2-thiazolyl)-1-piperazinyl]phenyl]-2-oxo-5-oxazolidinyl]methyl]acetamide], for which the MIC with S. aureus UC ® 9213 (setting [1]) was determined as 2 µg/mL (≈ 4.77 µM); with E. Faecalis UC ® 9217 (setting [2]) it was 1 µg/mL (≈ 2.38 µM).
For the molecule `CC(=O)NC[C@H]1CN(c2ccc(N3CCN(c4nc5ccc([N+](=O)[O-])cc5s4)CC3)c(F)c2)C(=O)O1` [Example 6, (S)--N--[[3-[3-Fluoro-4-[4-(6-nitrobenzothiazol-2-yl)-1-piperazinyl]phenyl]-2-oxo-5-oxazolidinyl]methyl]acetamide], the MIC with S. aureus UC ® 9213 (setting [1]) and in the assay with E. Faecalis UC ® 9217 (setting [2]) was 0.5 µg/mL (≈ 0.972 µM) each time.
In the case of `CC(=O)NC[C@H]1CN(c2ccc(N3CCN(c4nc5cc(F)ccc5o4)CC3)c(F)c2)C(=O)O1` [Example 7, (S)--N--[[3-[3-Fluoro-4-[4-(5-fluorobenzoxazol-2-yl)-1-piperazinyl]phenyl]-2-oxo-5-oxazolidinyl]methyl]acetamide], the MIC in the assay with S. aureus UC ® 9213 (setting [1]) and in the assay with E. Faecalis UC ® 9217 (setting [2]) was 4 µg/mL (≈ 8.48 µM) each time.
In the case of `CC(=O)NC[C@H]1CN(c2ccc(N3CCN(c4nc5ccc(F)cc5o4)CC3)c(F)c2)C(=O)O1` [Example 8, (S)--N--[[3-[3-Fluoro-4-[4-(6-fluorobenzoxazol-2-yl)-1-piperazinyl]phenyl]-2-oxo-5-oxazolidinyl]methyl]acetamide], the MIC in the assay on S. aureus UC ® 9213 (setting [1]) stood at 2 µg/mL (≈ 4.24 µM); in the assay with E. Faecalis UC ® 9217 (setting [2]) it was 1 µg/mL (≈ 2.12 µM).
Take `CC(=O)NC[C@H]1CN(c2ccc(N3CCN(c4nc5cccc(F)c5o4)CC3)c(F)c2)C(=O)O1` [Example 9, (S)--N--[[3-[3-Fluoro-4-[4-(7-fluorobenzoxazol-2-yl)-1-piperazinyl]phenyl]-2-oxo-5-oxazolidinyl]methyl]acetamide]: the MIC with S. aureus UC ® 9213 (setting [1]) and in the assay on E. Faecalis UC ® 9217 (setting [2]) was 1 µg/mL (≈ 2.12 µM) in each case.
Consider `CC(=O)NC[C@H]1CN(c2ccc(N3CCN(c4nc5ccc(F)c(F)c5o4)CC3)c(F)c2)C(=O)O1` [Example 10, (S)--N--[[3-[3-Fluoro-4-[4-(6,7-difluorobenzoxazol-2-yl)-1-piperazinyl]phenyl]-2-oxo-5-oxazolidinyl]methyl]acetamide], for which the MIC in the assay with S. aureus UC ® 9213 (setting [1]) and in the assay on E. Faecalis UC ® 9217 (setting [2]) was 2 µg/mL (≈ 4.09 µM) throughout.
Turning to `CC(=O)NC[C@H]1CN(c2ccc(N3CCN(C4=NCCS4)CC3)c(F)c2)C(=O)O1` [Example 11, (S)--N--[[3-[4-[4-(4,5-Dihydro-2-thiazolyl)-1-piperazinyl]-3-fluorophenyl]-2-oxo-5-oxazolidinyl]methyl]acetamide], the figures for the MIC in the assay with S. aureus UC ® 9213 (setting [1]) and in the assay on E. Faecalis UC ® 9217 (setting [2]) were 2 µg/mL (≈ 4.74 µM) and 1 µg/mL (≈ 2.37 µM), respectively.
On to `CC(=O)NC[C@H]1CN(c2ccc(N3CCN(C4=NCCO4)CC3)c(F)c2)C(=O)O1` [Example 12, (S)--N--[[3-[4-[4-(4,5-Dihydro-2-oxazolyl)-1-piperazinyl]-3-fluorophenyl]-2-oxo-5-oxazolidinyl]methyl]acetamide], for which the MIC in the assay with S. aureus UC ® 9213 (setting [1]) came out at 32 µg/mL (≈ 78.9 µM); in the assay on E. Faecalis UC ® 9217 (setting [2]), 4 µg/mL (≈ 9.87 µM).
As to `CC(=O)NC[C@H]1CN(c2ccc(N3CCN(c4nnnn4-c4ccccc4)CC3)c(F)c2)C(=O)O1` [Example 13], the MIC in the assay on S. aureus UC ® 9213 (setting [1]) and in the assay on E. Faecalis UC ® 9217 (setting [2]) was 4 µg/mL (≈ 8.32 µM) each time.
In the case of `CC(=O)NC[C@H]1CN(c2ccc(N3CCN(C4=NC(=O)CS4)CC3)c(F)c2)C(=O)O1` [Example 15], the figures for the MIC in the assay with S. aureus UC ® 9213 (setting [1]) and with E. Faecalis UC ® 9217 (setting [2]) were 2 µg/mL (≈ 4.59 µM) and 1 µg/mL (≈ 2.3 µM), respectively.
As to `CC(=O)NC[C@H]1CN(c2ccc(N3CCN(c4nncs4)CC3)c(F)c2)C(=O)O1` [Example 16, (S)--N--[[3-[3-Fluoro-4-[4-(1,3,4-thiadiazol-2-yl)-1-piperazinyl]phenyl]-2-oxo-5-oxazolidinyl]mehtyl]acetamide], the MIC with S. aureus UC ® 9213 (setting [1]) and with E. Faecalis UC ® 9217 (setting [2]) was 1 µg/mL (≈ 2.38 µM) throughout.
Take `CC(=O)NC[C@H]1CN(c2ccc(N3CCN(c4nnc(C)s4)CC3)c(F)c2)C(=O)O1` [Example 17, (S)--N--[[3-[3-Fluoro-4-[4-(5-methyl-1,3,4-thiadiazol-2-yl)-1-piperazinyl]phenyl]-2-oxo-5-oxazolidinyl]methyl]acetamide]: the results for the MIC in the assay on S. aureus UC ® 9213 (setting [1]) and with E. Faecalis UC ® 9217 (setting [2]) were 0.5 µg/mL (≈ 1.15 µM) and 1 µg/mL (≈ 2.3 µM), respectively.
The corresponding values for `CC(=O)NC[C@H]1CN(c2ccc(N3CCN(c4nnc(N)s4)CC3)c(F)c2)C(=O)O1` [Example 18] are 2 µg/mL (≈ 4.59 µM) and 2 µg/mL (≈ 4.59 µM).
Regarding `CCOC(=O)c1nnc(N2CCN(c3ccc(N4C[C@H](CNC(C)=O)OC4=O)cc3F)CC2)s1` [Example 19, (S)--N--[[3-[4-[4-(5-Ethoxycarbonyl-1,3,4-thiadiazol-2-yl)-3-fluoro-1-piperazinyl]phenyl]-2-oxo-5-oxazolidinyl]methyl]acetamide], the figures for the MIC in the assay with S. aureus UC ® 9213 (setting [1]) and in the assay with E. Faecalis UC ® 9217 (setting [2]) were 4 µg/mL (≈ 8.12 µM) and 2 µg/mL (≈ 4.06 µM), respectively.
For `CC(=O)NC[C@H]1CN(c2ccc(N3CCN(c4nnc(C(F)(F)F)s4)CC3)c(F)c2)C(=O)O1` [Example 20, (S)--N--[[3-[3-Fluoro-4-[4-(5-trifluoromethyl-1,3,4-thiadiazol-2-yl)-1-piperazinyl]phenyl]-2-oxo-5-oxazolidinyl]methyl]acetamide], the figures for the MIC with S. aureus UC ® 9213 (setting [1]) and in the assay on E. Faecalis UC ® 9217 (setting [2]) were 4 µg/mL (≈ 8.19 µM) and 2 µg/mL (≈ 4.09 µM), respectively.
With `CC(=O)NC[C@H]1CN(c2ccc(N3CCN(c4n[nH]c(=O)s4)CC3)c(F)c2)C(=O)O1` [Example 24, (S)--N--[[3-[3-Fluoro-4-[4-(5-oxo-1,3,4-thiadiazol-2-yl)-1-piperazinyl]phenyl]-2-oxo-5-oxazolidinyl]methyl]acetamide], the MIC in the assay on S. aureus UC ® 9213 (setting [1]) and with E. Faecalis UC ® 9217 (setting [2]) was 1 µg/mL (≈ 2.29 µM) in each case.
Consider `CC(=O)NC[C@H]1CN(c2ccc(N3CCN(c4nc(C)ns4)CC3)c(F)c2)C(=O)O1` [Example 25], for which the MIC is 2 µg/mL (≈ 4.6 µM) with S. aureus UC ® 9213 (setting [1]) and 1 µg/mL (≈ 2.3 µM) with E. Faecalis UC ® 9217 (setting [2]).
The corresponding values for `CC(=O)NC[C@H]1CN(c2ccc(N3CCN(c4nc(=O)n(-c5ccccc5)s4)CC3)c(F)c2)C(=O)O1` [Example 26, (S)--N--[[3-[3-Fluoro-4-[4-(2-phenyl-3-oxo-1,2,4-thiadiazol-5-yl)-1-piperazinyl]phenyl]-2-oxo-5-oxazolidinyl]methyl]acetamide] are 8 µg/mL (≈ 15.6 µM) and 4 µg/mL (≈ 7.8 µM).
Regarding `CC(=O)NC[C@H]1CN(c2ccc(N3CCN(c4nnc(C)o4)CC3)c(F)c2)C(=O)O1` [Example 27, (S)--N--[[3-[3-Fluoro-4-[4-(5-methyl-1,3,4-oxadiazol-2-yl)-1-piperazinyl]phenyl]-2-oxo-5-oxazolidinyl]methyl]acetamide], the MIC in the assay with S. aureus UC ® 9213 (setting [1]) and in the assay on E. Faecalis UC ® 9217 (setting [2]) was 4 µg/mL (≈ 9.56 µM) in each case.
As for `CN[C@H](CC(C)C)C(=O)N[C@H]1C(=O)N[C@@H](CC(N)=O)C(=O)N[C@H]2C(=O)N[C@H]3C(=O)N[C@H](C(=O)N[C@H](C(=O)O)c4cc(O)cc(O)c4-c4cc3ccc4O)[C@H](O)c3ccc(c(Cl)c3)Oc3cc2cc(c3O[C@@H]2O[C@H](CO)[C@@H](O)[C@H](O)[C@H]2O[C@H]2C[C@](C)(N)[C@H](O)[C@H](C)O2)Oc2ccc(cc2Cl)[C@H]1O` [Vancomycin, reference compound], the MIC was determined as 1 µg/mL (≈ 0.69 µM) in the assay on S. aureus UC ® 9213 (UC9213, read-out: MIC (minimum inhibitory concentration: lowest concentration of drug that inhibits visible growth of the organism)) and 4 µg/mL (≈ 2.76 µM) in the assay with E. Faecalis UC ® 9217 (UC9217, read-out: MIC (minimum inhibitory concentration: lowest concentration of drug that inhibits visible growth of the organism)).
As for `CC(=O)NC[C@H]1CN(c2ccc(N3CCNCC3)c(F)c2)C(=O)O1` [XLII, reference compound], the MIC in the assay with S. aureus UC ® 9213 (setting [1]) was > 64 µg/mL; with E. Faecalis UC ® 9217 (setting [2]) it was 32 µg/mL (≈ 95.1 µM).
In the case of “(S)--N--[[3-[4-[3-Fluoro-4-[(methyl-5-tetrazolyl)-1-piperazinyl]phenyl]-2-oxo-5-oxazolidinyl]methyl]acetamide [Example 14]”, the “MIC (minimum inhibitory concentration: lowest concentration of drug that inhibits visible growth of the organism)” value is 4 µg/mL in the assay on S. aureus UC ® 9213 (S. aureus UC 9213, agar dilution) and 2 µg/mL in the assay with E. Faecalis UC ® 9217 (E. Faecalis UC 9217, agar dilution).

The record behind these values is US5736545A, “Azolyl piperazinyl phenyl oxazolidinone antimicrobials” (Pharmacia & Upjohn Company, priority 1997, dated 1998).
